# Measurements taken from patent US11780830B2, “Triazolone derivatives or salts thereof and pharmaceutical compositions comprising the same” (YUHAN CORPORATION, priority 2018, dated 2023).
# Experiments:
# Assay type in all cases: biochemical
# [1] = target: T1, recombinant human DAO (diamine oxidase) (Homo sapiens, UniProt P19801); assay: Activity on recombinant human DAO, method similar to the VAP-1 assay; conditions: substrate 1 mM putrescine; read-out: Inhibitory Activity (IC50, nM) DAO
# T1 construct: purchased R&D systems
# T1 sequence (P19801 20-751): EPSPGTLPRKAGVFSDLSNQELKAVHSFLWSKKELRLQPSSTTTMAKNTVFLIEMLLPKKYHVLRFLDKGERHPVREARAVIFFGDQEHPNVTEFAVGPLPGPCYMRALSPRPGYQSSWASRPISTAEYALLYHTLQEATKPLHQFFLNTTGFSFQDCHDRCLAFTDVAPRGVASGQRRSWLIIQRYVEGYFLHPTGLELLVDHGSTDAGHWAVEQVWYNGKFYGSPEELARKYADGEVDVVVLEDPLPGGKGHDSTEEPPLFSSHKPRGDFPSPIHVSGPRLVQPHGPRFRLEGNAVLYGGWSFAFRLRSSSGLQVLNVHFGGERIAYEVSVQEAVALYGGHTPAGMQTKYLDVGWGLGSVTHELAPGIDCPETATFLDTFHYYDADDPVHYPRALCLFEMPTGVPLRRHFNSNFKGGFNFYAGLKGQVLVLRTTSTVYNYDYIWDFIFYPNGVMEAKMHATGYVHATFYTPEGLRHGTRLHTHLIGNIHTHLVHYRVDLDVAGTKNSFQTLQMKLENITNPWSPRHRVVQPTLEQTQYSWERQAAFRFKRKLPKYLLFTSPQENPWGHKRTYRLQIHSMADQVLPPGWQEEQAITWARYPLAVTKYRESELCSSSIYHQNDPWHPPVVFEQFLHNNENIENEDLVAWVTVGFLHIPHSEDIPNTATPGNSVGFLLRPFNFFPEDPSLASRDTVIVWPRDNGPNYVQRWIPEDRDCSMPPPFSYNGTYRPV
# Summary of the method: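 Inhibition of recombinant human diamine oxidase (DAO, R&D systems) was assessed by the same approach as the VAP-1 assay, using 1 mM putrescine as substrate. Hydrogen peroxide formed was detected through an HRP-coupled Amplex Red reaction yielding fluorescent resorufin, read at 544 nm excitation and 590 nm emission. IC50 values came from four-parameter logistic fitting in GraphPad Prism.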
# [2] = target: T2, recombinant human MAO-B (monoamine oxidase-B) (Homo sapiens, UniProt P27338); assay: Activity on recombinant human MAO-B, method similar to the VAP-1 assay; conditions: substrate 1 mM benzylamine; read-out: Inhibitory Activity (IC50, nM) MAO-B
# T2 construct: purchased Sigma-Aldrich
# T2 sequence (P27338 1-520): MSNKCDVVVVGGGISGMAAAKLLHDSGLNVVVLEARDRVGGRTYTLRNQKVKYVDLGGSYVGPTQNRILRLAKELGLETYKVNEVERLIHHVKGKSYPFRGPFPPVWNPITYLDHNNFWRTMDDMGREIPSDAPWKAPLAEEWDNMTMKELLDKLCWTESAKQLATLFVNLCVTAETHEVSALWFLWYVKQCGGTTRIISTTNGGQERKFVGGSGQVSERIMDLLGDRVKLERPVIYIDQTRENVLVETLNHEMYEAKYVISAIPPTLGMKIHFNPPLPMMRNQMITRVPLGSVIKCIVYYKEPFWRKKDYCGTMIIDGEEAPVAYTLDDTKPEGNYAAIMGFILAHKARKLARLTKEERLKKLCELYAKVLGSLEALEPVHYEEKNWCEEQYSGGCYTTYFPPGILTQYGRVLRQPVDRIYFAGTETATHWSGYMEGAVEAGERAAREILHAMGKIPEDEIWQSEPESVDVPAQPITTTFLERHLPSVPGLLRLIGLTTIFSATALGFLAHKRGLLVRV
# Summary of the method: (§1)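 Fluorescence (544/590 nm) of resorufin formed from Amplex Red by HRP and enzyme-generated H2O2 was followed over 1-2 h. Substrates were 0.5 mM tyramine for MAO-A and 1 mM benzylamine for MAO-B; compounds were preincubated with enzyme for 30 min at 37° C. IC50 came from four-parameter logistic fitting of signal-rate inhibition.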
# [3] = target: T3, recombinant human VAP-1 (Homo sapiens, UniProt Q16853); assay: Activity on recombinant human VAP-1, HRP-coupled Amplex Red hydrogen peroxide assay; conditions: substrate 1 mM benzylamine; compound incubated with enzyme at 37° C. for 30 minutes; pH 7.4; read-out: Inhibitory Activity (IC50, nM) human VAP-1
# T3 construct: purchased R&D systems
# T3 sequence (Q16853 1-763): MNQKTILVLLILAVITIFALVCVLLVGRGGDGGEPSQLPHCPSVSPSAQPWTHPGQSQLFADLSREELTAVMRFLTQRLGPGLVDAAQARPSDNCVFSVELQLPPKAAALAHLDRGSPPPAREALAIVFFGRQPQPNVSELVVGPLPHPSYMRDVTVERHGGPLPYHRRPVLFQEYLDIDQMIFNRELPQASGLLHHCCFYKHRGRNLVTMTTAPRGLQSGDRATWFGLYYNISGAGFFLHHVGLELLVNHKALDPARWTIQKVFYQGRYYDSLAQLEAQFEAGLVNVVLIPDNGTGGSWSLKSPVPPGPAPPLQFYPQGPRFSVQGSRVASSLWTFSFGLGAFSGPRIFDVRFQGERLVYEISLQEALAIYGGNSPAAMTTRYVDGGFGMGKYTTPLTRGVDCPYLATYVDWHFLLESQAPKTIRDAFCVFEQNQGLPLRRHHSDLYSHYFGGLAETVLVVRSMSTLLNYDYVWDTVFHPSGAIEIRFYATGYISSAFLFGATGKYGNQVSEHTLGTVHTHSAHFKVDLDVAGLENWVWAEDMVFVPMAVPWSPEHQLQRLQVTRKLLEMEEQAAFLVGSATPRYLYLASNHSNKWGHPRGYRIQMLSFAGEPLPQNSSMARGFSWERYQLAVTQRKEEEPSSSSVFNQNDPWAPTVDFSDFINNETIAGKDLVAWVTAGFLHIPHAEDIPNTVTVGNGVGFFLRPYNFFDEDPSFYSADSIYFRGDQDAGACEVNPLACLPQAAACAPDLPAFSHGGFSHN
# Summary of the method: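 Fluorescence of resorufin formed from H2O2 (ex 544 nm, em 590 nm) was tracked for 1-2 h after adding 1 mM benzylamine, 200 uM Amplex Red and 1 U/mL HRP to enzyme pretreated with compound for 30 min at 37 °C. IC50 values derive from four-variable logistic fits.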
# [4] = target: T4, recombinant human MAO-A (monoamine oxidase-A) (Homo sapiens, UniProt P21397); assay: Activity on recombinant human MAO-A, method similar to the VAP-1 assay; conditions: substrate 0.5 mM tyramine; read-out: Inhibitory Activity (IC50, nM) MAO-A
# T4 construct: purchased Sigma-Aldrich
# T4 sequence (P21397 1-527): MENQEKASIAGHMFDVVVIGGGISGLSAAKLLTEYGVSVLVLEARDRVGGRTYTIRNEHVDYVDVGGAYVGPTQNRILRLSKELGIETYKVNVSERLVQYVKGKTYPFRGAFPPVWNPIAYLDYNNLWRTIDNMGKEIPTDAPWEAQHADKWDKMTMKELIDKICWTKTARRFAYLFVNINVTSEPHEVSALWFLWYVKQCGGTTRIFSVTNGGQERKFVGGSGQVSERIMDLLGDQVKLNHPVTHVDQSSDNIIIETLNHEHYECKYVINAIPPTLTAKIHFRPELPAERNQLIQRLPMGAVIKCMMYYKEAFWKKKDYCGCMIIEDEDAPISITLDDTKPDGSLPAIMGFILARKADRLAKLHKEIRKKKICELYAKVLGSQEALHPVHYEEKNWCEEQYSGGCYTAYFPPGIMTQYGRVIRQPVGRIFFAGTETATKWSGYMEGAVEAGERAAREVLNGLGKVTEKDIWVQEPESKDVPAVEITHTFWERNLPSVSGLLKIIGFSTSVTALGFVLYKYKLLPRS
# Summary of the method: as §1
Compound,IC50 [1] [nM],IC50 [2] [nM],IC50 [3] [nM],IC50 [4] [nM]
"NC/C(=C\F)Cn1ncn(Cc2ccc(-c3cnc4c(c3)CCC(=O)N4)s2)c1=O [Example 148, 6-[5-({1-[(2E)-2-(aminomethyl)-3-fluoroprop-2-en-1-yl]-5-oxo-1,5-dihydro-4H-1,2,4-triazol-4-yl}methyl)thiophen-2-yl]-3,4-dihydro-1,8-naphthyridin-2(1H)-one]",420,24000,0.4,> 100000
"NC/C(=C\F)Cn1ncn(Cc2ccc(-c3cnc4c(c3)COC(=O)N4)s2)c1=O [Example 149, 6-[5-({1-[(2E)-2-(aminomethyl)-3-fluoroprop-2-en-1-yl]-5-oxo-1,5-dihydro-4H-1,2,4-triazol-4-yl}methyl)thiophen-2-yl]-1,4-dihydro-2H-pyrido[2,3-d][1,3]oxazin-2-one]",470,4500,0.4,> 100000
"CN1C(=O)COc2ncc(-c3ccc(Cn4cnn(C/C(=C/F)CN)c4=O)s3)cc21 [Example 150, 7-[5-({1-[(2E)-2-(aminomethyl)-3-fluoroprop-2-en-1-yl]-5-oxo-1,5-dihydro-4H-1,2,4-triazol-4-yl}methyl)thiophen-2-yl]-1-methyl-1H-pyrido[2,3-b][1,4]oxazin-2(3H)-one]",190,26000,0.8,> 100000
"NC/C(=C\F)Cn1ncn(Cc2ccc(-c3cnn(Cc4ccccc4)c3)s2)c1=O [Example 151, 2-[(2E)-2-(aminomethyl)-3-fluoroprop-2-en-1-yl]-4-{[5-(1-benzyl-1H-pyrazol-4-yl)thiophen-2-yl]methyl}-2,4-dihydro-3H-1,2,4-triazol-3-one]",790,1500,2.7,59000
"NC/C(=C\F)Cn1ncn(Cc2ccc(-c3cn[nH]c3)s2)c1=O [Example 152, 2-[(2E)-2-(aminomethyl)-3-fluoroprop-2-en-1-yl]-4-{[5-(1H-pyrazol-4-yl)thiophen-2-yl]methyl}-2,4-dihydro-3H-1,2,4-triazol-3-one]",4400,3500,4.9,13000
"CC(=O)c1ccc(-c2ccc(Cn3cnn(C/C(=C/F)CN)c3=O)s2)s1 [Example 155, 4-[(5′-acetyl-2,2′-bithiophen-5-yl)methyl]-2-[(2E)-2-(aminomethyl)-3-fluoroprop-2-en-1-yl]-2,4-dihydro-3H-1,2,4-triazol-3-one]",950,470,0.4,> 100000
"CN1CCC(n2cc(-c3ccc(Cn4cnn(C/C(=C/F)CN)c4=O)s3)cn2)CC1 [Example 159, 2-[(2E)-2-(aminomethyl)-3-fluoroprop-2-en-1-yl]-4-({5-[1-(1-methylpiperidin-4-yl)-1H-pyrazol-4-yl]thiophen-2-yl}methyl)-2,4-dihydro-3H-1,2,4-triazol-3-one]",1200,> 100000,4.3,> 100000

# Results, then the molecule that gave them:
IC50 [1] [nM],IC50 [2] [nM],IC50 [3] [nM],IC50 [4] [nM],Compound
4700,1900,1.3,> 100000,"CCn1cc(-c2ccc(Cn3cnn(C/C(=C/F)CN)c3=O)s2)cn1 [Example 153, 2-[(2E)-2-(aminomethyl)-3-fluoroprop-2-en-1-yl]-4-{[5-(1-ethyl-1H-pyrazol-4-yl)thiophen-2-yl]methyl}-2,4-dihydro-3H-1,2,4-triazol-3-one]"
690,1400,4.4,> 100000,"Cn1c(-c2ccc(Cn3cnn(C/C(=C/F)CN)c3=O)s2)cnc1Cl [Example 154, 2-[(2E)-2-(aminomethyl)-3-fluoroprop-2-en-1-yl]-4-{[5-(2-chloro-1-methyl-1H-imidazol-5-yl)thiophen-2-yl]methyl}-2,4-dihydro-3H-1,2,4-triazol-3-one]"
1300,28,4.2,> 100000,"Cn1nccc1-c1ccc(Cn2cnn(C/C(=C/F)CN)c2=O)s1 [Example 156, 2-[(2E)-2-(aminomethyl)-3-fluoroprop-2-en-1-yl]-4-{[5-(1-methyl-1H-pyrazol-5-yl)thiophen-2-yl]methyl}-2,4-dihydro-3H-1,2,4-triazol-3-one]"
1700,330,2.6,> 100000,"Cc1nn(C)cc1-c1ccc(Cn2cnn(C/C(=C/F)CN)c2=O)s1 [Example 157, 2-[(2E)-2-(aminomethyl)-3-fluoroprop-2-en-1-yl]-4-{[5-(1,3-dimethyl-1H-pyrazol-4-yl)thiophen-2-yl]methyl}-2,4-dihydro-3H-1,2,4-triazol-3-one]"
340,430,1.9,> 100000,"Cc1cc(-c2ccc(Cn3cnn(C/C(=C/F)CN)c3=O)s2)n(C)n1 [Example 158, 2-[(2E)-2-(aminomethyl)-3-fluoroprop-2-en-1-yl]-4-{[5-(1,3-dimethyl-1H-pyrazol-5-yl)thiophen-2-yl]methyl}-2,4-dihydro-3H-1,2,4-triazol-3-one]"
